Measured values from patent US7563805B2, “Tri-, tetra-substituted-3-aminopyrrolidine derivative” (Daiichi Pharmaceutical Co., Ltd., priority 2005, dated 2009).
Values after ≈ are worked out from the molar mass of the structure shown. Like-named read-outs stand apart in the source and are kept apart here.

Assays:
[1] = system: S. aureus, 87037 (LVFX-resistant MRSA); test: antibacterial activity (MIC), standard method of Japanese Society of Chemotherapy; settings: S. aureus, 87037 (LVFX-resistant MRSA)
P. aeruginosa, 32104 = test: as above
P. vulgaris, 08601 = test: as above
S. aureus, 209P = test: as above
S. marscecens, 10100 = test: as above
E. faecalis, ATCC 19433 = test: as above
P. aeruginosa, 32121 = test: as above
E. coli NIHJ = test: as above
S. epidermidis, 56500 = test: as above
[2] = system: S. pneumoniae, J24 (penicillin-intermediate resistant bacteria); test: as above
hERG K+ channel = hERG K+ channel (Homo sapiens, UniProt Q12809); test: hERG-K^+ channel blocking effect
[3] = Proteus vulgaris, 08601, P. vulgaris
[4] = Enterococcus faecalis, ATCC19433, E. faecalis
[5] = Staphylococcus epidermidis, 56500, S. epidermidis

Sequence of hERG K+ channel (Q12809 whole entry): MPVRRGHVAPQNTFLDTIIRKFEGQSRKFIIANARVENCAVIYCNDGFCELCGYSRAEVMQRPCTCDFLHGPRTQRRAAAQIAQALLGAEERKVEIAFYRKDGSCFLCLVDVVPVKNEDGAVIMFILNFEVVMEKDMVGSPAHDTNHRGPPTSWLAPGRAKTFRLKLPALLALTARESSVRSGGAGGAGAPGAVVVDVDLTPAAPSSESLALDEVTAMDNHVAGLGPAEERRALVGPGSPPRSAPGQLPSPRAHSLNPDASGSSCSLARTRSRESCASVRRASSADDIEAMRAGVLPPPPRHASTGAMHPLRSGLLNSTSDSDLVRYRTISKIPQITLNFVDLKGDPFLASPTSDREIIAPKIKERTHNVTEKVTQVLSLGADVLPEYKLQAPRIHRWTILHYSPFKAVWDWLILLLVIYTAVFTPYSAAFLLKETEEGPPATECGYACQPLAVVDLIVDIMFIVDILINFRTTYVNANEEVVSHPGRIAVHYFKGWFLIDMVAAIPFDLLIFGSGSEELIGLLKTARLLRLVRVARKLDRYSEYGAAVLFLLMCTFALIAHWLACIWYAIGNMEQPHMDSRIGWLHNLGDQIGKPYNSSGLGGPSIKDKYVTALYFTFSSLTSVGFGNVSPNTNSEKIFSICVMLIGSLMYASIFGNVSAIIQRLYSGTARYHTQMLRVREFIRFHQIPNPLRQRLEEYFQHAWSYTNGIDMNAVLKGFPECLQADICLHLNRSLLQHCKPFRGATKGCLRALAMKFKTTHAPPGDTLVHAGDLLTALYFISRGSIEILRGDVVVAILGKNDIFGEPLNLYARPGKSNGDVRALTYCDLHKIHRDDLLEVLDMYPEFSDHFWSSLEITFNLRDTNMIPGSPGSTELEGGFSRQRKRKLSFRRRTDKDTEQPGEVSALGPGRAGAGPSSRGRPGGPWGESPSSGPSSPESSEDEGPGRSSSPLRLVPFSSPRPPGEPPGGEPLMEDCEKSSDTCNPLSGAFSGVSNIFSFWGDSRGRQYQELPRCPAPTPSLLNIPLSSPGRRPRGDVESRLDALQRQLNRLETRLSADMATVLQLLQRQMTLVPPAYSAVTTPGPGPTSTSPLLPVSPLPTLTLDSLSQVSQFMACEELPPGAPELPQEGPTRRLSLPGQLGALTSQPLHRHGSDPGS

Structure (SMILES) | MIC ([1]; Staphylococcus aureus, MRSA) [µg/mL] | MIC (P. vulgaris, 08601; [3]) [µg/mL] | MIC (S. aureus, 209P; Staphylococcus aureus) [µg/mL] | MIC (S. marscecens, 10100) [µg/mL] | MIC (E. faecalis, ATCC 19433; [4]) [µg/mL] | MIC (P. aeruginosa, 32121; Pseudomonas aeruginosa) [µg/mL] | MIC (E. coli NIHJ; Escherichia coli) [µg/mL] | MIC (S. epidermidis, 56500; [5]) [µg/mL] | MIC ([2]; Streptococcus pneumoniae) [µg/mL] | melting point [°C] | also measured
C[C@H]1COc2c(N3CCN(C)CC3)c(F)cc3c(=O)c(C(=O)O)cn1c23 [LVFX, levofloxacin, reference compound] | > 6.25 | 0.012 (≈ 0.0332 µM) | 0.2 (≈ 0.553 µM) | 0.1 (≈ 0.277 µM) | 0.78 (≈ 2.16 µM) | 0.1 (≈ 0.277 µM) | 0.012 (≈ 0.0332 µM) | 0.39 (≈ 1.08 µM) | 0.78 (≈ 2.16 µM) | – | MIC (P. aeruginosa, 32104; Pseudomonas aeruginosa): 0.2 µg/mL (≈ 0.553 µM)
COc1c(N2C[C@@H](CF)[C@@](C)(N)C2)c(F)cc2c(=O)c(C(=O)O)cn([C@@H]3C[C@@H]3F)c12 [Example 24, 7-[(3R,4R)-3-Amino-4-fluoromethyl-3-methylpyrrolidin-1-yl]-6-fluoro-1-[(1R,2S)-2-fluoro-1-cyclopropyl]-8-methoxy-1,4-dihydro-4-oxoquinoline-3-carboxylic acid] | – | – | – | – | – | – | – | – | – | 185 to 188 | –
COc1c(N2CC(C)[C@@](N)(CF)C2)c(F)cc2c(=O)c(C(=O)O)cn([C@@H]3C[C@@H]3F)c12 (stereo partly drawn) [Example 28, 7-[(3S)-3-Amino-3-fluoromethyl-4-methylpyrrolidin-1-yl]-6-fluoro-1-[(1R,2S)-2-fluoro-1-cyclopropyl]-8-methoxy-1,4-dihydro-4-oxoquinoline-3-carboxylic acid] | 0.2 (≈ 0.47 µM) | 0.05 (≈ 0.118 µM) | 0.025 (≈ 0.0588 µM) | 0.39 (≈ 0.917 µM) | 0.2 (≈ 0.47 µM) | 0.39 (≈ 0.917 µM) | 0.025 (≈ 0.0588 µM) | 0.05 (≈ 0.118 µM) | 0.1 (≈ 0.235 µM) | 167 to 169 | –
Cc1c(N2C[C@H](CF)[C@](C)(N)C2)c(F)cc2c(=O)c(C(=O)O)cn(C3CC3)c12 [Example 23, 7-[(3S,4S)-3-Amino-4-fluoromethyl-3-methylpyrrolidin-1-yl]-1-cyclopropyl-6-fluoro-8-methyl-1,4-dihydro-4-oxoquinoline-3-carboxylic acid] | 0.39 (≈ 0.996 µM) | 0.006 (≈ 0.0153 µM) | 0.025 (≈ 0.0639 µM) | 0.05 (≈ 0.128 µM) | 0.1 (≈ 0.255 µM) | 0.05 (≈ 0.128 µM) | ≤ 0.003 | 0.05 (≈ 0.128 µM) | 0.05 (≈ 0.128 µM) | 212 to 215 | inhibition at 30 µM (hERG K+ channel): 3 ± 4.1%; inhibition at 100 µM (hERG K+ channel): 4.6 ± 4.7%; inhibition at 300 µM (hERG K+ channel): 16.7 ± 8.4%
COc1c(N2CC(F)[C@](C)(N)C2)c(F)cc2c(=O)c(C(=O)O)cn([C@@H]3C[C@@H]3F)c12 (single isomer, unassigned) [Example 26] | – | – | – | – | – | – | – | – | – | 206 to 208 | –
Cc1c(N2CC(C)[C@@](N)(CF)C2)c(F)cc2c(=O)c(C(=O)O)cn([C@@H]3C[C@@H]3F)c12 (stereo partly drawn) [Example 31, 7-[(3S)-3-Amino-3-fluoromethyl-4-methylpyrrolidin-1-yl]-6-fluoro-1-[(1R,2S)-2-fluoro-1-cyclopropyl]-8-methyl-1,4-dihydro-4-oxoquinoline-3-carboxylic acid] | 0.1 (≈ 0.244 µM) | 0.012 (≈ 0.0293 µM) | 0.012 (≈ 0.0293 µM) | 0.1 (≈ 0.244 µM) | 0.1 (≈ 0.244 µM) | 0.05 (≈ 0.122 µM) | 0.006 (≈ 0.0147 µM) | 0.025 (≈ 0.0611 µM) | 0.05 (≈ 0.122 µM) | 200 to 203 | –
COc1c(N2C[C@H](CF)[C@](C)(N)C2)c(F)cc2c(=O)c(C(=O)O)cn([C@@H]3C[C@@H]3F)c12 [Example 20, 7-[(3S,4S)-3-Amino-4-fluoromethyl-3-methylpyrrolidin-1-yl]-6-fluoro-1-[(1R,2S)-2-fluoro-1-cyclopropyl]-8-methoxy-1,4-dihydro-4-oxoquinoline-3-carboxylic acid] | – | – | – | – | – | – | – | – | – | 187 to 189 | inhibition at 30 µM (hERG K+ channel): 1.4 ± 4.5%; inhibition at 100 µM (hERG K+ channel): 8.5 ± 6.1%; inhibition at 300 µM (hERG K+ channel): 14.5 ± 6%
COc1c(N2CC(C)(N)C3(CC3)C2)c(F)cc2c(=O)c(C(=O)O)cn([C@@H]3C[C@@H]3F)c12 (stereo partly drawn) [Example 10, 7-(7-Amino-7-methyl-5-azaspiro[2.4]heptan-5-yl)-6-fluoro-1-[(1R,2S)-2-fluorocyclopropyl]-8-methoxy-1,4-dihydro-4-oxoguinoline-3-carboxylic acid] | – | – | – | 0.2 (≈ 0.477 µM) | – | – | – | – | – | – | MIC [1]: 1.56 µg/mL (≈ 3.72 µM); MIC (P. aeruginosa, 32104; P. aeruginosa): 0.39 µg/mL (≈ 0.93 µM); MIC (P. vulgaris, 08601; P. vulgaris): 0.05 µg/mL (≈ 0.119 µM); MIC (S. aureus, 209P): 0.05 µg/mL (≈ 0.119 µM); MIC (E. faecalis, ATCC 19433; E. faecalis): 0.78 µg/mL (≈ 1.86 µM); MIC (P. aeruginosa, 32121; P. aeruginosa): 0.2 µg/mL (≈ 0.477 µM); MIC (E. coli NIHJ; E. coli NIHJ): 0.025 µg/mL (≈ 0.0596 µM); MIC (S. epidermidis, 56500; S. epidermidis): 0.2 µg/mL (≈ 0.477 µM); MIC [2]: 0.39 µg/mL (≈ 0.93 µM)
